From US20220195384A1, “COMPOSITION FOR PROMOTING PRODUCTION OF STEM CELL-DERIVED EXOSOMES AND INCREASING STEMNESS” (BREXOGEN INC., priority 2019, published 2022)
Where no end group is shown, it is not given here.

Legend:
Assay type in all cases: cell-based
[1] = tested on: primary umbilical cord-derived mesenchymal stem cells; test: Number of exosomes by nanoparticle tracking assay (NanoSight NS300); conditions: for No. of exosome particles, yield per 10^6 cells: then 72 h exosome-free FBS medium
Experimental: (§1) In a culture medium [high glucose DMEM (Gibco, Cat no. 11995-065); 10% fetal bovine serum (HyClone), 1% MEM non-essential amino acids solution (100×) (Gibco, Cat no. 11140-050)] containing 20 nM of exendin-4, primary umbilical cord-derived mesenchymal stem cells (ATCC No. PCS-500-010; Lot No. 63822428) were cultured for one week.
(§2) After completion of culturing, the mesenchymal stem cells pretreated with exendin-4 were washed and additionally cultured for 72 hours in a culture medium supplemented with 10% fetal bovine serum (FBS) free of exosomes. The reason of employing exosome-free FBS was to prevent FBS-derived exosomes other than those secreted from the cells from being incorporated because generally used FBS contained a large amount of exosomes derived from bovine serum.
(§3) After 72 hours of culturing, the culture medium in which the pretreated mesenchymal stem cells were cultured was taken and centrifuged at 300×g for 10 min to remove residual cells and cell debris. The supernatant was filtered through a 0.22 μm filter, followed by centrifugation at 10,000×g and 4° C. for 70 min in a high-speed centrifuge. The supernatant thus obtained was subjected again to ultracentrifugation at 100,000×g and 4° C. for 90 min. The exosomes obtained as a pellet were diluted in PBS (phosphate buffered saline) before use in the following experiments.
as §1, with “10” for “20”, “PMA,” for “exendin-4,”
as §2, with “PMA” for “exendin-4”
as §1, with “10 ng/mL interferon-γ,” for “20 nM of exendin-4,”
as §2, with “interferon-γ” for “exendin-4”
as §1, with “10 μM” for “20 nM”, “tetrandrine,” for “exendin-4,”
as §2, with “tetrandrine” for “exendin-4”, “serum. […]” for “serum.”

[2] = tested on: primary umbilical cord-derived mesenchymal stem cells; test: Stem cell stemness: colony formation (CFU-F, crystal violet) after pretreatment; conditions: for colonies formed (each 50 or more cells): 1,000 cells/dish, 21 days; for CFU-F increase: vs non-treated
Experimental: as §1
as §1, with “10” for “20”, “PMA,” for “exendin-4,”
as §1, with “10 ng/mL interferon-γ,” for “20 nM of exendin-4,”
as §1, with “10 μM” for “20 nM”, “tetrandrine,” for “exendin-4,”
as §1, with “10 μg/mL hyaluronic acid,” for “20 nM of exendin-4,”
as §1, with “30” for “20”, “substance P,” for “exendin-4,”
as §1, with “10” for “20”, “resveratrol,” for “exendin-4,”
as §1, with “10 μM” for “20 nM”, “lanifibranor,” for “exendin-4,”
Mesenchymal stem cells and the exendin-4-pretreated mesenchymal stem cells of the Example were each seeded at a density of 1,000 cells/dish into 100-mm cell culture dishes containing […] of a culture medium [high glucose DMEM (Gibco, Cat no. 11995-065), 10% fetal bovine serum (HyClone), 1% MEM non-essential amino acids solution (100×) (Gibco, Cat no. 11140-050)] per dish and cultured for 21 days. The cell-attached dishes were washed twice with PBS, followed by fixation with 95% methanol at room temperature for about 2 min. The fixed cells were washed three times with PBS and stained with 0.5% crystal violet [(sigma, C-3886, USA) […], methanol 100 ml] for 5 min. After water washing and drying at room temperature, colonies, each composed of 50 or more cells, were counted for comparison.
Mesenchymal stem cells and the PMA-pretreated mesenchymal stem cells of the Example were each seeded at a density of 1,000 cells/dish into 100-mm cell culture dishes containing […] of a culture medium [high glucose DMEM (Gibco, Cat no. 11995-065), 10% fetal bovine serum (HyClone), 1% MEM non-essential amino acids solution (100×) (Gibco, Cat no. 11140-050)] per dish and cultured for 21 days. The cell-attached dishes were washed twice with PBS, followed by fixation with 95% methanol at room temperature for about 2 min. […]

[3] = tested on: primary umbilical cord-derived mesenchymal stem cells; test: Content of exosomal protein (Bradford analysis, 595 nm); conditions: for Exosomal protein, yield per 10^6 cells: then 72 h exosome-free FBS medium
Experimental: as §1, §2, §3
as §1, with “10” for “20”, “PMA,” for “exendin-4,”
as §2, with “PMA” for “exendin-4”
as §1, with “10 ng/mL interferon-γ,” for “20 nM of exendin-4,”
as §2, with “interferon-γ” for “exendin-4”
as §1, with “10 μM” for “20 nM”, “tetrandrine,” for “exendin-4,”
as §2, with “tetrandrine” for “exendin-4”, “serum. […]” for “serum.”

[4] = tested on: primary umbilical cord-derived mesenchymal stem cells; test: Content of exosomal RNA (NanoDrop); conditions: for Exosomal RNA, yield per 10^6 cells: then 72 h exosome-free FBS medium
Experimental: as §1, §2, §3
as §1, with “10” for “20”, “PMA,” for “exendin-4,”
as §2, with “PMA” for “exendin-4”
as §1, with “10 ng/mL interferon-γ,” for “20 nM of exendin-4,”
as §2, with “interferon-γ” for “exendin-4”
as §1, with “10 μM” for “20 nM”, “tetrandrine,” for “exendin-4,”
as §2, with “tetrandrine” for “exendin-4”, “serum. […]” for “serum.”

[5] = tested on: primary umbilical cord-derived mesenchymal stem cells; test: Stem cell proliferation (CCK, absorbance 450 nm) after pretreatment; conditions: 24 h culture, CCK 4 h
Experimental: as §1
as §1, with “10” for “20”, “PMA,” for “exendin-4,”
as §1, with “10 ng/mL interferon-γ,” for “20 nM of exendin-4,”
as §1, with “10 μM” for “20 nM”, “tetrandrine,” for “exendin-4,”
as §1, with “10 μg/mL hyaluronic acid,” for “20 nM of exendin-4,”
as §1, with “30” for “20”, “substance P,” for “exendin-4,”
as §1, with “10” for “20”, “resveratrol,” for “exendin-4,”
as §1, with “10 μM” for “20 nM”, “lanifibranor,” for “exendin-4,”
(§4) Mesenchymal stem cells and the exendin-4-pretreated mesenchymal stem cells of the Example were each seeded at a density of 3,000 cells/well into 96-well plates containing 100 μL of a culture medium [high glucose DMEM (Gibco, Cat no. 11995-065), 10% fetal bovine serum (HyClone), 1% MEM non-essential amino acids solution (100×) (Gibco, Cat no. 11140-050)] per well and cultured for 24 hours in a CO2 incubator. Then, CCK solution (10 μL/well) was added, and incubation was continued for 4 hours in the CO2 incubator, followed by reading absorbance at a wavelength of 450 nm (420-480 nm) to determine proliferation.
as §4, with “PMA-pretreated” for “exendin-4-pretreated”, “proliferation. […]” for “proliferation.”

[6] = 20 nM exendin-4 pretreatment one week
[7] = 30 nM substance P pretreatment one week

For exendin-4, the “fold more exosomes than non-treated mesenchymal stem cells” value [1, 6] was “about 5.85 fold”, the “No. of exosome particles, yield per 10^6 cells” value ([1]; 20 nM exendin-4 pretreatment one week, non-treated 2.30) was 13.45 10^9 and the “colonies formed (each 50 or more cells)” value ([2]; 20 nM exendin-4 pretreatment one week, non-treated 28.6) was 185 colonies. The CFU-F increase [2, 6] was “about 647%”, the “fold greater exosomal proteins than non-treated mesenchymal stem cells” value [3, 6] was “about 5.4 fold” and the “Exosomal protein, yield per 10^6 cells” value ([3]; 20 nM exendin-4 pretreatment one week, non-treated 2.00) was 10.69 μg. For the same substance, the “fold greater exosomal RNA than non-treated mesenchymal stem cells” value [4, 6] was “about 5.6 fold”, the “Exosomal RNA, yield per 10^6 cells” value ([4]; 20 nM exendin-4 pretreatment one week, non-treated 31.00) was 174.34 ng and the “increase in proliferation relative to non-treated mesenchymal stem cells” value [5, 6] was “about 340%”. For the same substance, the “proliferation ratio relative to non-treated mesenchymal stem cells (1)” value [5, 6] was 3.4.
For “substance P (RPKPQQFFGLM; not fully specified; ends and bridges not checked; UniProt P20366 58-68, looked up) [undecapeptide of the tachykinin neuropeptide family acting on NK1 receptor; SubsP MSC-Exo = exosomes of treated mesenchymal stem cells]”, the “fold more exosomes than non-treated mesenchymal stem cells” value [1, 7] was “about 4.3 fold”, the “No. of exosome particles, yield per 10^6 cells” value ([1]; 30 nM substance P pretreatment one week, non-treated 2.3) was 9.93 10^9 and the “colonies formed (each 50 or more cells)” value ([2]; 30 nM substance P pretreatment one week, non-treated 28.7) was 116 colonies. The CFU-F increase [2, 7] was “about 404%”, the “fold greater exosomal proteins than non-treated mesenchymal stem cells” value [3, 7] was “about 5.2 fold” and the “Exosomal protein, yield per 10^6 cells” value ([3]; 30 nM substance P pretreatment one week, non-treated 2.0) was 10.37 ug. For the same substance, the “fold greater exosomal RNA than non-treated mesenchymal stem cells” value [4, 7] was “about 4.9 fold”, the “Exosomal RNA, yield per 10^6 cells” value ([4]; 30 nM substance P pretreatment one week, non-treated 31.0) was 150.84 ng and the “increase in proliferation relative to non-treated mesenchymal stem cells” value [5, 7] was “about 290%”. For the same substance, the “proliferation ratio relative to non-treated mesenchymal stem cells (1)” value [5, 7] was 2.9.
